{"source": "patent US9840506B2", "about": "“Crystal of doripenem, and preparation method therefor” (JW PHARMACEUTICAL CORPORATION, priority 2014, dated 2017)", "format_in_all_cases": "physicochemical", "key": {"[1]": {"assay": "Stability: purity after standing at 60° C. for 3 weeks", "procedure": "In addition, the Type VI doripenem anhydride crystal according to the present invention and the Type IV doripenem were allowed to stand at 60° C. for 3 weeks, and the purity thereof was measured to evaluate the stability."}, "[2]": {"assay": "TGA loss", "procedure": "Based on the results of TGA, about 4.8% loss occurred in the Type IV doripenem of Comparative Example 9 (FIG. 8) and about 0.46% loss occurred in the Type VI doripenem anhydride crystal of Example 3 according to the present invention (FIG. 7). This means that the novel doripenem crystal, prepared through the method of the present invention, is an anhydride. Furthermore, the water content of the doripenem anhydride crystal according to the present invention was measured and found to be less than about 2%."}, "[3]": {"assay": "Solubility of doripenem crystal in water", "procedure": "The solubility of the Type VI doripenem anhydride crystal of Example 3 according to the present invention was measured and compared with that of the Type IV doripenem of Comparative Example 9.\n50 mg of each of the Type VI doripenem anhydride crystal of Example 3 and the Type IV doripenem of Comparative Example 9 was added with water until the doripenem was completely dissolved, and the solubility thereof was measured. Meanwhile, 10 mL of water was added with the Type VI doripenem anhydride crystal of Example 3 and the Type IV doripenem of Comparative Example 9 until the doripenem was completely dissolved, and the solubility thereof was measured."}, "[4]": {"assay": "Stability: max. amount of impurities after standing at 60±5° C. for 3 weeks", "procedure": "In addition, the Type VII doripenem anhydride crystal of Example 7 according to the present invention and the Type IV doripenem of Comparative Example 9 were allowed to stand at 60±5° C. for 3 weeks, and the purity thereof was measured to evaluate the stability."}, "[5]": {"assay": "DSC, decomposition temperature / stability at high temperature", "procedure": "When the Type VI doripenem anhydride crystal of Example 3 according to the present invention and the conventional Type IV doripenem were analyzed through differential scanning calorimetry (DSC), the decomposition temperature of the Type VI doripenem anhydride crystal was higher than that of the Type IV doripenem (FIG. 6).\nIn addition, the decomposition temperature of the Type VII doripenem anhydride crystal of Example 7 according to the present invention was higher than that of the Type IV doripenem hydrate (FIG. 11)."}, "[6]": {"assay": "Measurement of water content", "procedure": "The doripenem anhydride crystals of Examples 3 and 7 according to the present invention and the Type IV doripenem hydrate of Comparative Example 9 were measured for water content."}, "[7]": {"conditions": "2 weeks, listed as Comp. Example 9"}, "[8]": {"conditions": "3 weeks, listed as Comp. Example 9"}}, "note": "Where two headings read alike, the source gives them in different places.", "data": [{"compound": "C[C@@H](O)[C@H]1C(=O)N2C(C(=O)O)=C(S[C@@H]3CN[C@H](CNS(N)(=O)=O)C3)[C@H](C)[C@H]12", "note": "[Comparative Example 9, doripenem]", "values": [{"measurement": "Purity (%)", "setting": "[1]; 1 week, listed as Comp. Example 9", "value": 99.0, "unit": "%"}, {"measurement": "Purity (%)", "setting": "[1]; [7]", "value": 98.2, "unit": "%"}, {"measurement": "Purity (%)", "setting": "[1]; [8]", "value": 97.3, "unit": "%"}, {"measurement": "decrease of purity over time", "setting": "[1]; 3 weeks, listed as Type IV doripenem", "value": 2.56, "unit": "%"}, {"measurement": "Purity (%)", "setting": "[1]; Initial, listed as Comp. Example 9", "value": 99.8, "unit": "%"}, {"measurement": "loss in TGA", "setting": "[2]", "value": "about 4.8%"}, {"measurement": "solubility", "setting": "[3]; at 22° C.", "value": 20, "unit": "mg/mL"}, {"measurement": "Max. Amount of impurities (%)", "setting": "[4]; 1 week", "value": 0.08, "unit": "%"}, {"measurement": "Max. Amount of impurities (%)", "setting": "[4]; [7]", "value": 0.23, "unit": "%"}, {"measurement": "increase of maximum amount of impurities over time", "setting": "[4]; 3 weeks", "value": 0.22, "unit": "%"}, {"measurement": "Max. Amount of impurities (%)", "setting": "[4]; [8]", "value": 0.28, "unit": "%"}, {"measurement": "Max. Amount of impurities (%)", "setting": "[4]; Initial", "value": 0.06, "unit": "%"}]}, {"compound": "C[C@@H](O)[C@H]1C(=O)N2C(C(=O)O)=C(S[C@@H]3CN[C@H](CNS(N)(=O)=O)C3)[C@H](C)[C@H]12", "note": "[Example 3, doripenem]", "values": [{"measurement": "Purity (%)", "setting": "[1]; 1 week", "value": 99.4, "unit": "%"}, {"measurement": "Purity (%)", "setting": "[1]; 2 weeks", "value": 98.8, "unit": "%"}, {"measurement": "Purity (%)", "setting": "[1]; 3 weeks", "value": 98.7, "unit": "%"}, {"measurement": "decrease of purity over time", "setting": "[1]; 3 weeks", "value": "less than 1%"}, {"measurement": "Purity (%)", "setting": "[1]; Initial", "value": 99.6, "unit": "%"}, {"measurement": "loss in TGA", "setting": "[2]", "value": "about 0.46%"}, {"measurement": "stability at high temperature (DSC decomposition temperature) compared to Type IV doripenem hydrate", "setting": "[5]", "value": "superior stability at high temperature"}, {"measurement": "solubility", "setting": "[3]; 22 °C, thermodynamic from solid, at 20 to 25° C., read-out: solubility", "value": "55 to 65", "unit": "mg/mL"}, {"measurement": "Water content", "setting": "[6]; listed as Type VI doripenem anhydride crystal", "value": "less than 2%"}]}, {"compound": "C[C@@H](O)[C@H]1C(=O)N2C(C(=O)O)=C(S[C@@H]3CN[C@H](CNS(N)(=O)=O)C3)[C@H](C)[C@H]12", "note": "[Example 7, doripenem]", "values": [{"measurement": "stability at high temperature (DSC decomposition temperature) compared to Type IV doripenem hydrate", "setting": "[5]", "value": "superior stability at high temperature"}, {"measurement": "solubility", "setting": "[3]; 22 °C, thermodynamic from solid, measured in the same manner as for Example 3, read-out: solubility", "value": "30 to 35", "unit": "mg/mL"}, {"measurement": "Max. Amount of impurities (%)", "setting": "[4]; 1 week", "value": 0.08, "unit": "%"}, {"measurement": "Max. Amount of impurities (%)", "setting": "[4]; 2 weeks", "value": 0.08, "unit": "%"}, {"measurement": "Max. Amount of impurities (%)", "setting": "[4]; 3 weeks", "value": 0.08, "unit": "%"}, {"measurement": "increase of maximum amount of impurities over time", "setting": "[4]; 3 weeks", "value": 0.02, "unit": "%"}, {"measurement": "Max. Amount of impurities (%)", "setting": "[4]; Initial", "value": 0.06, "unit": "%"}, {"measurement": "Water content", "setting": "[6]; listed as Type VII doripenem anhydride crystal", "value": "less than 2%"}]}]}
